# From patent publication US20090227619A1, “Harmine derivatives, intermediates used in their preparations, preparation processes and use therefo” (priority 2003, published 2009)
# Like-named read-outs stand apart in the source and are kept apart here.
# Experiments:
# HepG2 = assay: In vitro cytotoxicity, IC50 by MTT method, HepG2; type: cell-based, human
# Protocol: (§1) Culture medium powder RPMI1640 was dissolved in a proper amount of tri-distilled water according to the instruction of the product. […] It was the basic culture solution. The complete culture solution was added with FBS having a final concentration of 10%, 100 U/ml penicillin and 100 µg/ml streptomycin. The solution was fully stirred by a magnetic blender, and the pH of the solution was adjusted to 6.8-7.0. The volume was kept constant. After being filtered and disinfected, the solution was kept into several containers which were sealed and stored at 4° C.
# (§2) The cells were placed in a culture dish followed by the addition of complete culture liquid RPMI1640 and then cultured in a incubator comprising 5% CO2 at 37° C. In the exponential growth phase, the cells grew vigorously. If the culture liquid became yellow, the liquid should be replaced instantly.
# (§3) The cells, at a concentration of 10^5/ml, were inoculated at a 96-pore culture plate. In each pore, 100 μl cells were inoculated. The cells were placed in a CO2 incubator until the cells were in the logarithmic growth phase. The samples to be tested were added according to the preset concentration gradient. For each gradient, the test was conducted at least three times. An equivalent amount of solvent for dissolving the samples was added in the control group. After 48 h of culture, each pore was added 20 μl MTT (5 mg/ml). The cells were cultured at 37° C. for 4 h. After the supernatant was carefully removed, 100 μl DMSO was added in each pore. The plate was agitated for about 10 minutes such that the precipitates were dissolved. After that, OD value was identified with a Microplate Reader at the wavelength of 490 nm. The survival rate of the cells at various concentrations was calculated according to the following formula:
# (§4) Survival rate %=average OD value of the sample group/average OD value of the control group×100%
# (§5) Plots of log survival rate of the cells vs. concentration of the medicament were constructed, and the IC50 value of each sample was calculated according to graphing methods.
# PLA-801 = assay: In vitro cytotoxicity, IC50 by MTT method, PLA-801; type: cell-based
# Protocol: as §1, §2, §3, §4, §5
# Bel-7402 = assay: In vitro cytotoxicity, IC50 by MTT method, Bel-7402; type: cell-based
# Protocol: as §1, §2, §3, §4, §5
# BGC-823 = assay: In vitro cytotoxicity, IC50 by MTT method, BGC-823; type: cell-based
# Protocol: as §1, §2, §3, §4, §5
# Hela = assay: In vitro cytotoxicity, IC50 by MTT method, Hela; type: cell-based
# Protocol: as §1, §2, §3, §4, §5
# Lovo = assay: In vitro cytotoxicity, IC50 by MTT method, Lovo; type: cell-based
# Protocol: as §1, §2, §3, §4, §5
# NIH3T3 = assay: In vitro cytotoxicity, IC50 by MTT method, NIH3T3; type: cell-based
# Protocol: as §1, §2, §3, §4, §5
# Lewis lung cancer = settings: Lewis lung cancer; for Body weight of the animals, end, First time / Body weight of the animals, end, Second time: ip × 10qd;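 as to all read-outs here: mice implanted subcutaneously in the axilla with Lewis lung tumor cells, treated starting the following day, killed roughly three weeks after implantation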
# S180 sarcoma = settings: S180 sarcoma; for Body weight of the animals, beginning, First time / Body weight of the animals, end, First time / Inhibition rate, First time / Weight of the tumor X ± SD, First time / Body weight of the animals, beginning, Second time / Body weight of the animals, end, Second time / Inhibition rate, Second time: ip × 10qd
# Excerpt: There was one group of 8 to 10 mice C57BL/6 and Kunming mice for the anti-tumor tests and two groups of mice for negative control.
# (3) Sources of tumors: Lewis lung cancer cells and S180 sarcoma in mice, which were sub-cultured and maintained by Pharmacological Center of Shanghai Pharmaceutical Industrial Research Institute.
# All samples were weighed and added a small amount of Tween-80 to facilitate dissolution during the experiment, and then 0.5% CMC-Na solution was gradually added to achieve the desired concentration. The volume for experiment was 0.5 ml/20 g mouse.
# The medicaments were intraperitoneally administered once a day continuously for 10 days.
# For the negative control group, a vehicle of the same volume was intraperitoneally administered once a day continuously for 10 days. For the positive control group, CTX was administered in the dosage of 30 mg/kg once a day continuously for 7 days.
# In vivo anti-tumor subcutaneous vaccination in the axilla was employed. Wildly grown tumor source was taken under sterile conditions to form a cell suspension of about 1×10^7 ml by homogenization method. For a corresponding mouse host, the suspension was injected in the axilla in an amount of 0.2 ml/mouse. The next day, the medicaments were administered according to the design of the tests. About three weeks later, all the groups of animals were executed. The tumors were taken from the animals and weighed. The inhibition rate of tumors was calculated according to the following formula:
# T: average tumor weight of treated group; C: average tumor weight of negative control group.
# [1] = PLA-801 cell strain, read-out: IC50 PLA-801
# [2] = Homo sapiens, HepG2, MTT, read-out: IC50
# [3] = Homo sapiens, Bel-7402, BeI7402, MTT, read-out: IC50
# [4] = Homo sapiens, BGC-823, BGC823, MTT, read-out: IC50
# [5] = Homo sapiens, Hela, MTT, read-out: IC50
# [6] = Homo sapiens, Lovo, MTT, read-out: IC50
# [7] = Mus musculus, NIH3T3, MTT, read-out: IC50
# [8] = Homo sapiens, HepG2 cell strain, read-out: IC50 HepG2
# [9] = Homo sapiens, Bel-7402, Bel7402 cell strain, read-out: IC50 Bel7402
# [10] = Homo sapiens, BGC-823, BGC823 cell strain, read-out: IC50 BGC823
# [11] = Homo sapiens, Hela cell strain, read-out: IC50 Hela
# [12] = Homo sapiens, Lovo cell strain, read-out: IC50 Lovo
# [13] = Mus musculus, NIH3T3 cell strain, read-out: IC50 NIH3T3
# 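For LD50 in this document: acute toxicity in Kunming mice grouped by sex, one intraperitoneal dose at five graded levels in Tween-80 plus 0.5% CMC-Na, deaths monitored over two weeks.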
compound,measurement,setting,value
"2,9-dibenzyl-3-ethoxycarbonyl-β-carbolinium bromate [Compound 86]",IC50,"HepG2; HepG2 cell strain, read-out: IC50 HepG2",40 µM
same,IC50,PLA-801; [1],10 µM
same,IC50,"Bel-7402; Bel7402 cell strain, read-out: IC50 Bel7402",50 µM
same,IC50,"BGC-823; BGC823 cell strain, read-out: IC50 BGC823",40 µM
same,IC50,"Hela; Hela cell strain, read-out: IC50 Hela",30 µM
same,IC50,"Lovo; Lovo cell strain, read-out: IC50 Lovo",20 µM
same,IC50,"NIH3T3; NIH3T3 cell strain, read-out: IC50 NIH3T3",20 µM
same,LD50,"Kunming mice; 50% male 50% female mice, single i.p.",65.7 mg/kg
same,LD50,"Kunming mice; mouse, in vivo, ip",58.2 to 74.1 mg/kg
same,LD50,"Kunming mice; summary Table 34, present tests, mice i.p.",65.7
same,"Body weight of the animals, end, First time",Lewis lung cancer; Dosage 10 (mg/ml),24.5 g
same,"Body weight of the animals, end, Second time",Lewis lung cancer; Dosage 10 (mg/ml),25.1 g
same,"Body weight of the animals, beginning, First time","Lewis lung cancer; Dosage 10, ip × 10qd",20.2 g
same,"Inhibition rate, First time","Lewis lung cancer; Dosage 10, ip × 10qd",34.98%
same,"Weight of the tumor X ± SD, First time","Lewis lung cancer; Dosage 10, ip × 10qd",1.58 ± 0.11 g
same,"Body weight of the animals, beginning, Second time","Lewis lung cancer; Dosage 10, ip × 10qd",19.1 g
same,"Inhibition rate, Second time","Lewis lung cancer; Dosage 10, ip × 10qd",37.20%
same,"Weight of the tumor X ± SD, Second time","Lewis lung cancer; Dosage 10, ip × 10qd",1.84 ± 0.17 g
same,"Body weight of the animals, end, First time",Lewis lung cancer; Dosage 20 (mg/ml),25.2 g
same,"Body weight of the animals, end, Second time",Lewis lung cancer; Dosage 20 (mg/ml),23.9 g
same,"Body weight of the animals, beginning, First time","Lewis lung cancer; Dosage 20, ip × 10qd",20.0 g
same,"Inhibition rate, First time","Lewis lung cancer; Dosage 20, ip × 10qd",41.56%
same,"Weight of the tumor X ± SD, First time","Lewis lung cancer; Dosage 20, ip × 10qd",1.42 ± 0.11 g
same,"Body weight of the animals, beginning, Second time","Lewis lung cancer; Dosage 20, ip × 10qd",18.7 g
same,"Inhibition rate, Second time","Lewis lung cancer; Dosage 20, ip × 10qd",45.05%
same,"Weight of the tumor X ± SD, Second time","Lewis lung cancer; Dosage 20, ip × 10qd",1.61 ± 0.17 g
same,Inhibition rate (%) Lewis cancer,"Lewis lung cancer; comparison table 43, in vivo",41.56%
same,"Body weight of the animals, beginning, First time",S180 sarcoma; Dosage 10 (mg/ml),19.3 g
same,"Body weight of the animals, end, First time",S180 sarcoma; Dosage 10 (mg/ml),24.5 g
same,"Inhibition rate, First time",S180 sarcoma; Dosage 10 (mg/ml),31.09%
same,"Weight of the tumor X ± SD, First time",S180 sarcoma; Dosage 10 (mg/ml),1.84 ± 0.16 g
same,"Body weight of the animals, beginning, Second time",S180 sarcoma; Dosage 10 (mg/ml),18.7 g
same,"Body weight of the animals, end, Second time",S180 sarcoma; Dosage 10 (mg/ml),24.9 g
same,"Inhibition rate, Second time",S180 sarcoma; Dosage 10 (mg/ml),28.89%
same,"Weight of the tumor X ± SD, Second time","S180 sarcoma; Dosage 10, ip × 10qd",1.92 ± 0.20 g
same,"Body weight of the animals, beginning, First time",S180 sarcoma; Dosage 20 (mg/ml),19.0 g
same,"Body weight of the animals, end, First time",S180 sarcoma; Dosage 20 (mg/ml),23.7 g
same,"Inhibition rate, First time",S180 sarcoma; Dosage 20 (mg/ml),38.95%
same,"Weight of the tumor X ± SD, First time",S180 sarcoma; Dosage 20 (mg/ml),1.63 ± 0.26 g
same,"Body weight of the animals, beginning, Second time",S180 sarcoma; Dosage 20 (mg/ml),18.9 g
same,"Body weight of the animals, end, Second time",S180 sarcoma; Dosage 20 (mg/ml),24.4 g
same,"Inhibition rate, Second time",S180 sarcoma; Dosage 20 (mg/ml),41.11%
same,"Weight of the tumor X ± SD, Second time","S180 sarcoma; Dosage 20, ip × 10qd",1.59 ± 0.17 g
same,Inhibition rate (%) S180 sarcomata,"S180 sarcoma; comparison table 43, in vivo",41.11%
"CCOC(=O)c1cc2c([nH]c3ccccc32)c(CC)n1 [Compound 12, ethyl 1-ethyl-β-carboline-3-carboxylate]",IC50,HepG2; [2],> 3000 µM
same,IC50,"PLA-801; PLA-801, MTT, read-out: IC50",> 3000 µM
same,IC50,Bel-7402; [3],> 3000 µM
same,IC50,BGC-823; [4],> 3000 µM
same,IC50,Hela; [5],> 3000 µM
same,IC50,Lovo; [6],1570 µM
same,IC50,NIH3T3; [7],> 3000 µM
same,melting point,,209 to 210 °C
"CCCc1nc(C(=O)OCC)cc2c1[nH]c1ccccc12 [Compound 13, ethyl 1-propyl-β-carboline-3-carboxylate]",IC50,HepG2; [2],1060 µM
same,IC50,"PLA-801; PLA-801, MTT, read-out: IC50",670 µM
same,IC50,Bel-7402; [3],> 3000 µM
same,IC50,BGC-823; [4],> 3000 µM
same,IC50,Hela; [5],> 3000 µM
same,IC50,Lovo; [6],740 µM
same,IC50,NIH3T3; [7],750 µM
same,melting point,,194 to 195 °C
"CCNC1(C(N)=O)C=C2C(=Nc3ccccc32)C=N1 (stereo not drawn) [Compound 19, 3-ethylamino-β-carboline-3-formamide]",IC50,HepG2; [2],80 µM
same,IC50,"PLA-801; PLA-801, MTT, read-out: IC50",140 µM
same,IC50,Bel-7402; [3],160 µM
same,IC50,BGC-823; [4],80 µM
same,IC50,Hela; [5],90 µM
same,IC50,Lovo; [6],100 µM
same,IC50,NIH3T3; [7],200 µM
same,melting point,,233 to 236 °C
"COC(=O)Nc1cc2c(cn1)[nH]c1ccccc12 [Compound 22, 3-[(methoxycarbonyl)amino]-β-carboline]",IC50,HepG2; [2],230 µM
same,IC50,"PLA-801; PLA-801, MTT, read-out: IC50",200 µM
same,IC50,Bel-7402; [3],130 µM
same,IC50,BGC-823; [4],210 µM
same,IC50,Hela; [5],170 µM
same,IC50,Lovo; [6],160 µM
same,IC50,NIH3T3; [7],320 µM
same,melting point,,180 to 182 °C
"CCOC(=O)Nc1cc2c(cn1)[nH]c1ccccc12 [Compound 23, 3-[(ethoxycarbonyl)amino]-β-carboline]",IC50,HepG2; [2],> 3000 µM
same,IC50,"PLA-801; PLA-801, MTT, read-out: IC50",2160 µM
same,IC50,Bel-7402; [3],> 3000 µM
same,IC50,BGC-823; [4],> 3000 µM
same,IC50,Hela; [5],> 3000 µM
same,IC50,Lovo; [6],> 3000 µM
same,IC50,NIH3T3; [7],> 3000 µM
same,melting point,,221 to 223 °C
"OCc1cc2c(cn1)[nH]c1ccccc12 [Compound 24, 3-hydroxymethyl-β-carboline]",IC50,HepG2; [2],580 µM
same,IC50,"PLA-801; PLA-801, MTT, read-out: IC50",1080 µM
same,IC50,Bel-7402; [3],740 µM
same,IC50,BGC-823; [4],780 µM
same,IC50,Hela; [5],620 µM
same,IC50,Lovo; [6],490 µM
same,IC50,NIH3T3; [7],360 µM
same,melting point,,226 to 228 °C
"CC(=O)COc1cc2c(cn1)[nH]c1ccccc12 [Compound 25, 3-acetylmethoxy-β-carboline]",IC50,HepG2; [2],1130 µM
same,IC50,"PLA-801; PLA-801, MTT, read-out: IC50",780 µM
same,IC50,Bel-7402; [3],590 µM
same,IC50,BGC-823; [4],640 µM
same,IC50,Hela; [5],780 µM
same,IC50,Lovo; [6],250 µM
same,IC50,NIH3T3; [7],310 µM
same,melting point,,131 to 132 °C
"CCCCn1c2ccccc2c2cc(C(=O)OC)ncc21 [Compound 28, methyl 9-n-butyl-β-carboline-3-carboxylate]",IC50,HepG2; [8],460 µM
same,IC50,PLA-801; [1],140 µM
same,IC50,Bel-7402; [9],430 µM
same,IC50,BGC-823; [10],310 µM
same,IC50,Hela; [11],290 µM
same,IC50,Lovo; [12],170 µM
same,IC50,NIH3T3; [13],80 µM
same,melting point,,181 to 183 °C
"COC(=O)c1cc2c3ccccc3n(Cc3ccccc3)c2cn1 [Compound 29, methyl 9-benzyl-β-carboline-3-carboxylate]",IC50,HepG2; [8],1770 µM
same,IC50,PLA-801; [1],480 µM
same,IC50,Bel-7402; [9],60 µM
same,IC50,BGC-823; [10],950 µM
same,IC50,Hela; [11],120 µM
same,IC50,Lovo; [12],310 µM
same,IC50,NIH3T3; [13],360 µM
same,melting point,,187 to 188 °C
